# Positions of bridges follow the written chain, without caps; N, C: chain ends. Non-standard residues stand in square brackets, D forms with d. Residues, ends and D or L forms follow the SMILES beside them. Groups on a side chain read outwards from the residue. *: point of attachment. Palmitoyl(16-(5-tetrazolyl)) = O=C(CCCCCCCCCCCCCCCc1nnn[nH]1)*; Lys(CH2CO2H)2 = N[C@@H](CCCCN(CC(=O)O)CC(=O)O)C(=O)O; C16 diacid = O=C(O)CCCCCCCCCCCCCCC(=O)*; hCys = N[C@@H](CCS)C(=O)O; Orn = NCCC[C@H](N)C(=O)O; Dab = NCC[C@H](N)C(=O)O; Dap = NC[C@H](N)C(=O)O; AEEA = NCCOCCOCC(=O)O
# Test: physchem
# Experimental: From a stock solution in vehicle, either H2O or 10 mM phosphate, containing 1 mg (as weighed) compound per ml, 8-11 aliquots are withdrawn and pH-adjusted individually with HCl/NaOH, to cover the whole pH range.
smiles,measurement,setting,value
"CC(=O)N[C@H]1CNC(=O)C[C@@H](C(=O)N2CCC[C@H]2C(=O)N2CCC[C@H]2C(=O)N[C@@H](CCCNC(=N)N)C(=O)N[C@@H](CC(=O)O)C(=O)N[C@@H](CCCCN(CC(=O)O)CC(=O)O)C(=O)N[C@@H](CCCCNC(=O)COCCOCCNC(=O)CCCCCCCCCCCCCCCc2nnn[nH]2)C(N)=O)NC(=O)[C@H](Cc2c[nH]c3ccccc23)NC(=O)[C@H](CCCNC(=N)N)NC(=O)[C@@H](Cc2ccccc2)NC(=O)[C@H](Cc2c[nH]cn2)NC1=O [Example 36, Ac-c[Dap-His-D-Phe-Arg-Trp-Asp]-Pro-Pro-Arg-Asp-Lys(biscarboxymethyl)-Lys[(2-{2-[16-(tetrazol-5-yl)hexadecanoylamino]ethoxy}ethoxy)acetyl]-NH2] (Ac-[Dap]H[dF]RWDPPRD[Lys(CH2CO2H)2]K([AEEA-Palmitoyl(16-(5-tetrazolyl))])-NH2; lactam 1-6)",solubility,"pH 5.7, Solubility Conc.",17 µM
same,solubility,"pH 6, Solubility Conc.",18 µM
same,solubility,"pH 6.5, Solubility Conc.",28 µM
same,solubility,"pH 7.1, Solubility Conc.",87 µM
same,solubility,"pH 7.4, Solubility Conc.",261 µM
same,solubility,"pH 7.5, Solubility Conc.",488 µM
same,solubility,"pH 7.6, Solubility Conc.",504 µM
same,solubility,"pH 7.9, Solubility Conc.",514 µM
same,solubility,"pH 8.1, Solubility Conc.",505 µM
"CC(=O)N[C@H]1CCCNC(=O)C[C@@H](C(=O)N2CCC[C@H]2C(=O)N2CCC[C@H]2C(=O)N[C@@H](CCCNC(=N)N)C(=O)N[C@@H](CCC(=O)O)C(=O)N[C@@H](CCCCN(CC(=O)O)CC(=O)O)C(=O)N[C@@H](CCCCNC(=O)COCCOCCNC(=O)CCCCCCCCCCCCCCC(=O)O)C(N)=O)NC(=O)[C@H](Cc2c[nH]c3ccccc23)NC(=O)[C@H](CCCNC(=N)N)NC(=O)[C@@H](Cc2ccccc2)NC(=O)[C@H](Cc2c[nH]cn2)NC1=O [Example 42, Ac-c[Orn-His-D-Phe-Arg-Trp-Asp]-Pro-Pro-Arg-Glu-Lys(biscarboxymethyl)-Lys({2-[2-(15-carboxypentadecanoylamino)ethoxy]ethoxy}acetyl)-NH2] (Ac-[Orn]H[dF]RWDPPRE[Lys(CH2CO2H)2]K([AEEA-C16 diacid])-NH2; lactam 1-6)",solubility,"pH 4.9, Solubility Conc.",153 µM
same,solubility,"pH 5.8, Solubility Conc.",240 µM
same,solubility,"pH 6.4, Solubility Conc.",364 µM
same,solubility,"pH 6.7, Solubility Conc.",421 µM
same,solubility,"pH 7, Solubility Conc.",449 µM
same,solubility,"pH 7.2, Solubility Conc.",438 µM
same,solubility,"pH 7.5, Solubility Conc.",441 µM
same,solubility,"pH 7.9, Solubility Conc.",476 µM
same,solubility,"pH 8.1, Solubility Conc.",417 µM
"CC(=O)N[C@H]1CCCNC(=O)C[C@@H](C(=O)N2CCC[C@H]2C(=O)N2CCC[C@H]2C(=O)N[C@@H](CCCNC(=N)N)C(=O)N[C@@H](CC(=O)O)C(=O)N[C@@H](CCCCN(CC(=O)O)CC(=O)O)C(=O)N[C@@H](CCCCNC(=O)COCCOCCNC(=O)CCCCCCCCCCCCCCCc2nnn[nH]2)C(N)=O)NC(=O)[C@H](Cc2c[nH]c3ccccc23)NC(=O)[C@H](CCCNC(=N)N)NC(=O)[C@@H](Cc2ccccc2)NC(=O)[C@H](Cc2c[nH]cn2)NC1=O [Example 17, Ac-c[Orn-His-D-Phe-Arg-Trp-Asp]-Pro-Pro-Arg-Asp-Lys(biscarboxymethyl)-Lys[(2-{2-[16-(tetrazol-5-yl)hexadecanoylamino]ethoxy}ethoxy)acetyl]-NH2] (Ac-[Orn]H[dF]RWDPPRD[Lys(CH2CO2H)2]K([AEEA-Palmitoyl(16-(5-tetrazolyl))])-NH2; lactam 1-6)",solubility,"pH 5.8, Solubility Conc.",25 µM
same,solubility,"pH 6.7, Solubility Conc.",45 µM
same,solubility,"pH 6.9, Solubility Conc.",75 µM
same,solubility,"pH 7.2, Solubility Conc.",297 µM
same,solubility,"pH 7.3, Solubility Conc.",428 µM
same,solubility,"pH 7.4, Solubility Conc.",490 µM
same,solubility,"pH 7.8, Solubility Conc.",470 µM
same,solubility,"pH 8, Solubility Conc.",487 µM
"CC(=O)N[C@H]1CSSC[C@@H](C(=O)N2CCC[C@H]2C(=O)N2CCC[C@H]2C(=O)N[C@@H](CCCCN)C(=O)N[C@@H](CCC(=O)O)C(=O)N[C@@H](CCC(=O)O)C(=O)N[C@@H](CCCCNC(=O)COCCOCCNC(=O)CCCCCCCCCCCCCCC(=O)O)C(N)=O)NC(=O)CNC(=O)[C@H](Cc2c[nH]c3ccccc23)NC(=O)[C@H](CCCNC(=N)N)NC(=O)[C@@H](Cc2ccccc2)NC(=O)[C@H](Cc2c[nH]cn2)NC(=O)[C@H](CCC(=O)O)NC1=O [Example 68, Ac-c[Cys-Glu-His-D-Phe-Arg-Trp-Gly-Cys]-Pro-Pro-Lys-Glu-Glu-Lys({2-[2-(15-carboxypentadecanoylamino)ethoxy]ethoxy}acetyl)-NH2] (Ac-CEH[dF]RWGCPPKEEK([AEEA-C16 diacid])-NH2; disulfide 1-8)",solubility,"pH 4, Solubility Conc.",167 µM
same,solubility,"pH 5.1, Solubility Conc.",87 µM
same,solubility,"pH 5.8, Solubility Conc.",102 µM
same,solubility,"pH 6.2, Solubility Conc.",164 µM
same,solubility,"pH 6.9, Solubility Conc.",182 µM
same,solubility,"pH 7.3, Solubility Conc.",181 µM
same,solubility,"pH 7.5, Solubility Conc.",184 µM
same,solubility,"pH 7.9, Solubility Conc.",188 µM
same,solubility,"pH 8, Solubility Conc.",183 µM
"CC(=O)N[C@H]1CCSSC[C@@H](C(=O)N[C@@H](CO)C(=O)N2CCC[C@H]2C(=O)N[C@@H](CCCCN)C(=O)N[C@@H](CCC(=O)O)C(=O)N[C@@H](CCCCN(CC(=O)O)CC(=O)O)C(=O)N[C@@H](CCCCNC(=O)COCCOCCNC(=O)CCCCCCCCCCCCCCC(=O)O)C(N)=O)NC(=O)[C@H](Cc2c[nH]c3ccccc23)NC(=O)[C@H](CCCNC(=N)N)NC(=O)[C@@H](Cc2ccccc2)NC(=O)[C@H](Cc2c[nH]cn2)NC1=O [Example 60, Ac-c[homoCys-His-D-Phe-Arg-Trp-Cys]-Ser-Pro-Lys-Glu-Lys(biscarboxymethyl)-Lys({2-[2-(15-carboxypentadecanoylamino)ethoxy]ethoxy}acetyl)-NH2] (Ac-[hCys]H[dF]RWCSPKE[Lys(CH2CO2H)2]K([AEEA-C16 diacid])-NH2; disulfide 1-6)",solubility,"pH 4, Solubility Conc.",424 µM
same,solubility,"pH 5.4, Solubility Conc.",126 µM
same,solubility,"pH 6, Solubility Conc.",133 µM
same,solubility,"pH 6.2, Solubility Conc.",171 µM
same,solubility,"pH 6.4, Solubility Conc.",415 µM
same,solubility,"pH 6.8, Solubility Conc.",457 µM
same,solubility,"pH 7.3, Solubility Conc.",459 µM
same,solubility,"pH 7.6, Solubility Conc.",456 µM
same,solubility,"pH 7.8, Solubility Conc.",461 µM
same,solubility,"pH 7.9, Solubility Conc.",450 µM
"CC(=O)N[C@H]1CCCNC(=O)CC[C@@H](C(=O)N2CCC[C@H]2C(=O)N2CCC[C@H]2C(=O)N[C@@H](CCCNC(=N)N)C(=O)N[C@@H](CC(=O)O)C(=O)N[C@@H](CCCCN(CC(=O)O)CC(=O)O)C(=O)N[C@@H](CCCCNC(=O)COCCOCCNC(=O)CCCCCCCCCCCCCCCc2nnn[nH]2)C(N)=O)NC(=O)[C@H](Cc2c[nH]c3ccccc23)NC(=O)[C@H](CCCNC(=N)N)NC(=O)[C@@H](Cc2ccccc2)NC(=O)[C@H](Cc2c[nH]cn2)NC1=O [Example 8, Ac-c[Orn-His-D-Phe-Arg-Trp-Glu]-Pro-Pro-Arg-Asp-Lys(biscarboxymethyl)-Lys[(2-{2-[16-(tetrazol-5-yl)hexadecanoylamino]ethoxy}ethoxy)acetyl]-NH2] (Ac-[Orn]H[dF]RWEPPRD[Lys(CH2CO2H)2]K([AEEA-Palmitoyl(16-(5-tetrazolyl))])-NH2; lactam 1-6)",solubility,"pH 6.5, Solubility Conc.",35 µM
same,solubility,"pH 6.8, Solubility Conc.",44 µM
same,solubility,"pH 7, Solubility Conc.",91 µM
same,solubility,"pH 7.2, Solubility Conc.",268 µM
same,solubility,"pH 7.3, Solubility Conc.",482 µM
same,solubility,"pH 7.4, Solubility Conc.",551 µM
same,solubility,"pH 7.5, Solubility Conc.",538 µM
same,solubility,"pH 7.6, Solubility Conc.",582 µM
same,solubility,"pH 7.8, Solubility Conc.",556 µM
"CC(=O)N[C@H]1CCC(=O)NCC[C@@H](C(=O)N2CCC[C@H]2C(=O)N2CCC[C@H]2C(=O)N[C@@H](CCCNC(=N)N)C(=O)N[C@@H](CC(=O)O)C(=O)N[C@@H](CCCCN(CC(=O)O)CC(=O)O)C(=O)N[C@@H](CCCCNC(=O)COCCOCCNC(=O)CCCCCCCCCCCCCCCc2nnn[nH]2)C(N)=O)NC(=O)[C@H](Cc2c[nH]c3ccccc23)NC(=O)[C@H](CCCNC(=N)N)NC(=O)[C@@H](Cc2ccccc2)NC(=O)[C@H](Cc2c[nH]cn2)NC1=O [Example 16, Ac-c[Glu-His-D-Phe-Arg-Trp-Dab]-Pro-Pro-Arg-Asp-Lys(biscarboxymethyl)-Lys[(2-{2-[16-(tetrazol-5-yl)hexadecanoylamino]ethoxy}ethoxy)acetyl]-NH2] (Ac-EH[dF]RW[Dab]PPRD[Lys(CH2CO2H)2]K([AEEA-Palmitoyl(16-(5-tetrazolyl))])-NH2; lactam 1-6)",solubility,"pH 6.7, Solubility Conc.",42 µM
same,solubility,"pH 7.1, Solubility Conc.",96 µM
same,solubility,"pH 7.3, Solubility Conc.",191 µM
same,solubility,"pH 7.4, Solubility Conc.",262 µM
same,solubility,"pH 7.5, Solubility Conc.",357 µM
same,solubility,"pH 7.6, Solubility Conc.",431 µM
same,solubility,"pH 7.8, Solubility Conc.",409 µM
same,solubility,"pH 8, Solubility Conc.",447 µM
"CC(=O)N[C@H]1CNC(=O)CC[C@@H](C(=O)N2CCC[C@H]2C(=O)N2CCC[C@H]2C(=O)N[C@@H](CCCNC(=N)N)C(=O)N[C@@H](CC(=O)O)C(=O)N[C@@H](CCCCN(CC(=O)O)CC(=O)O)C(=O)N[C@@H](CCCCNC(=O)COCCOCCNC(=O)CCCCCCCCCCCCCCCc2nnn[nH]2)C(N)=O)NC(=O)[C@H](Cc2c[nH]c3ccccc23)NC(=O)[C@H](CCCNC(=N)N)NC(=O)[C@@H](Cc2ccccc2)NC(=O)[C@H](Cc2c[nH]cn2)NC1=O [Example 47, Ac-c[Dap-His-D-Phe-Arg-Trp-Glu]-Pro-Pro-Arg-Asp-Lys(biscarboxymethyl)-Lys[(2-{2-[16-(tetrazol-5-yl)hexadecanoylamino]ethoxy}ethoxy)acetyl]-NH2] (Ac-[Dap]H[dF]RWEPPRD[Lys(CH2CO2H)2]K([AEEA-Palmitoyl(16-(5-tetrazolyl))])-NH2; lactam 1-6)",solubility,"pH 6.4, Solubility Conc.",24 µM
same,solubility,"pH 6.9, Solubility Conc.",56 µM
same,solubility,"pH 7.1, Solubility Conc.",103 µM
same,solubility,"pH 7.2, Solubility Conc.",219 µM
same,solubility,"pH 7.3, Solubility Conc.",366 µM
same,solubility,"pH 7.5, Solubility Conc.",379 µM
same,solubility,"pH 7.6, Solubility Conc.",371 µM
same,solubility,"pH 7.9, Solubility Conc.",493 µM
